Measurements published in publication PMC9266914, “Broad Spectrum Functional Activity of Structurally Related Monoanionic Au(III) Bis(Dithiolene) Complexes” (International Journal of Molecular Sciences, 2022).
Read-outs that look alike come from different tables or passages of the source.

Legend:
[1] = target: human serum albumin (HSA) (Homo sapiens, UniProt P02768); assay: HSA fluorescence quenching (Stern-Volmer); assay type: binding; settings: for Stern Volmer quenching constant KSV / association constant Ka / bimolecular quenching constant Kq / number of binding sites n: HSA, Hepes pH 7.4; for HSA fluorescence intensity quenched: two molar excesses of complex, 37 °C, 24 h, pH 7.4
Chain of human serum albumin (HSA) (P02768 25-609): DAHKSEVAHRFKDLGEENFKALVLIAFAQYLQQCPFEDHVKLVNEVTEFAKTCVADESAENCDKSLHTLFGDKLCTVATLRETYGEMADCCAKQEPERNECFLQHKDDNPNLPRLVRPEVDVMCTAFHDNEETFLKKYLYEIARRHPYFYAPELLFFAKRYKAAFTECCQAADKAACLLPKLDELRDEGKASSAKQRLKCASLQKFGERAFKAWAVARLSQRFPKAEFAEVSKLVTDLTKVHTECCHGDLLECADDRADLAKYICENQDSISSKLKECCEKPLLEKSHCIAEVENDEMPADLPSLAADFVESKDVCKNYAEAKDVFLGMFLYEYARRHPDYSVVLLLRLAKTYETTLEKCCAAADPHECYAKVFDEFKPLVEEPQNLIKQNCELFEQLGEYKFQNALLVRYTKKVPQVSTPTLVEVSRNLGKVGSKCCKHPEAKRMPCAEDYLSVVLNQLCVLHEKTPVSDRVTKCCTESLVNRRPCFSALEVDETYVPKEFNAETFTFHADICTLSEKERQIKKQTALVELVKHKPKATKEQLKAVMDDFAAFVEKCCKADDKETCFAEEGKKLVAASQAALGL
Procedure: Stock solutions of HSA were prepared by dissolving HSA in 10 mM Hepes buffer, pH 7.4. The protein concentration was determined spectrophotometrically using the molar absorption coefficient of 36,500 M^−1 cm^−1 at 280 nm. The complexes [P][AuSEt(=S)], [P][AuSEt(=Se)], [P][AuSeiPr(=S)] and [P][AuSBu(=S)] were first prepared at 1 mM concentration in DMSO due to the limited solubility of the complexes in aqueous media. A series of complex–protein solutions were prepared by adding different concentrations of gold complexes solutions to the protein solution previously prepared. After preparation of the batch complex–protein solutions, the final concentration of DMSO was 1%. For fluorescence acquisition, the final HSA concentration was […] and the gold concentrations were […]. The mixtures were stirred to ensure the formation of a homogeneous solution and then kept in an incubator at 37 °C for 24 h in the dark to stabilize and enhance the interaction time. The reference solutions without protein were prepared following the procedures described above.
Steady-state fluorescence measurements were performed with a Fluorolog Model-3.22 spectrofluorimeter from Horiba Jobin Yvon at 25 °C. All the experiments were performed in Hellma® semi-micro fluorescence cuvettes (Suprasil® quartz, path-length 10 × 4 mm, chamber volume […]) with the 10 mm path length for the excitation of the sample. The excitation and emission bandwidths were fixed at 4.0 nm, and the excitation wavelength was 295 nm to excite selectively the tryptophan 214 residue, the emission spectra were recorded from 305 to 550 nm. Buffer solutions of gold complexes in corresponding concentrations were used as reference for the measured fluorescence spectra of protein–complex mixtures. The fluorescence intensities were corrected for the absorption of the exciting light and reabsorption of the emitted light to decrease the inner filter effect using UV–visible absorption data recorded for each sample on a Jasco V-660 spectrophotometer in the range of 260 to 800 nm with 1 mm path quartz cells. More details and all the equations can be found in the SI.
F0 = 1 + (K + K )[Q] + K K [Q]2 (S1) where F0 and F are the fluorescence intensities of HSA in the absence and presence of a quencher (Au complex), respectively; KD and KS represents the dynamic and static constants, respectively, and [Q] is the quencher concentration.
When the fluorescence intensity quenching occurs by a purely static or dynamic mechanism, the following Stern-Volmer equation can be used:
F0 = 1 + K τ [Q] = 1 + K [Q] (S2) where Kq, 0 and KSV represents the bimolecular quenching constant, the fluorophore lifetime in the absence of the quencher and the Stern -Volmer quenching constant, respectively.
The relationship between the fluorescence intensity of the protein and the complex concentrati on is given by the equation:
log (F0 − F) = log K + n log[Q] […]
Table S1. Values of Stern Volmer quenching constant (Ksv), association constant (Ka) and number of binding sites (n) for the interaction for HSA with gold […]

HIV-1 SG3.1 = assay: Single-round viral infectivity assay in TZM-bl reporter cells; assay type: cell-based; settings: SG3.1 isolate, 48 h, in words
Procedure: The HIV-1 SG3.1 subtype B strain was obtained by transfection of HEK293T cells with pSG3.1 plasmid using jetPrime transfection reagent (Polyplus-tranfection SA, Illkirch, France) according to the manufacturer’s instructions. The 50% tissue culture infectious dose (TCID50) of the virus was determined in a single-round viral infectivity assay using a luciferase reporter gene assay in TZM-bl cells and calculated using the statistical method of Reed and Muench.
The antiviral activity of Auranofin, [P][AuSEt(=S)] and [P][AuSBu(=S)] compounds was determined in a single-round viral infectivity assay using TZM-bl reporter cells, as previously described. Briefly, TZM-bl cells were infected with 200 TCID50 of SG3.1 in the presence of serial-fold dilutions of the compounds in growth medium, supplemented with DEAE-dextran. After 48 h of infection, luciferase expression was quantified with Pierce Firefly Luc One-Step Glow Assay Kit (ThermoFisher Scientific, Rockford, IL, USA) according to the manufacturer’s instructions.
At least two independent experiments were performed for each antiviral activity analysis. The assay was set up in triplicate wells. Virus controls and cell controls were used.

[2] = tested on: A2780 ovarian cancer cells; assay: MTT cytotoxicity assay in A2780 (cisplatin sensitive) ovarian cancer cells; assay type: cell-based, human
In short: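 Cells in RPMI-1640 with 10% FBS exposed to complexes at 0.01–100 μM for 24 and/or 48 h at 37 °C. Viability by colorimetric MTT; IC50 derived from dose–response curves.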

TZM-bl cells = assay: alamarBlue cytotoxicity in TZM-bl cells; assay type: cell-based
Procedure: The in vitro cytotoxicity of auranofin, [P][AuSBu(=S)] and [P][AuSEt(=S)] was evaluated in TZM-bl cells using alamarBlue cell viability reagent (Life Technologies, Carlsbad, CA, USA). TZM-bl cells (AIDS Research and Reference Reagent Program, National Institutes of Health, Bethesda, MD, USA) were cultured in complete growth medium that consists of Dulbecco’s minimal essential medium (DMEM) supplemented with 10% fetal bovine serum (FBS), 100 U/ml of penicillin-streptomycin (Gibco/Invitrogen, Waltham, MA, USA), 1 mM of sodium pyruvate (Gibco/Invitrogen, Carlsbad, CA, USA), 2 mM of L-glutamine (Gibco/Invitrogen, USA) and 1 mM of non-essential amino acids (Gibco/Invitrogen, USA). Cells were cultured in the presence and absence of serial-fold dilutions of the compounds. At least two independent experiments were performed for each cytotoxicity analysis. Each dilution of each compound was performed in triplicate wells. For each assay we had medium controls (only growth medium), cell controls (cells without test compound) and cytotoxicity controls (a compound that kill cells). The cytotoxicity of each compound was expressed by the 50% cytotoxic concentration (CC50), which is the concentration of compound causing 50% decrease in cellular viability.

[3] = 24 h incubation, read-out: IC50 A2780, 24 h
[4] = 48 h incubation, read-out: IC50 A2780, 48 h

CCn1c2c(sc1=S)[S][Au-]1([S]c3sc(=S)n(CC)c3[S]1)[S]2.c1ccc([P+](c2ccccc2)(c2ccccc2)c2ccccc2)cc1 [[P][AuSEt(=S)]]
Stern Volmer quenching constant KSV [1]: 6.48 ± 0.06 x 105 L mol-1 | association constant Ka [1]: 1.12 ± 0.02 x 104 L mol-1 | bimolecular quenching constant Kq [1]: 6.48 ± 0.06 x 1013 L mol-1 s-1 | number of binding sites n [1]: 1.179 | HSA fluorescence intensity quenched [1]: 76.3% | anti-HIV-1 activity (HIV-1 SG3.1): none of the compounds presented anti-HIV-1 activity | IC50 [2, 3]: 580 ± 200 nM | IC50 [2, 4]: 180 nM | CC50 (TZM-bl cells): 4920 nM | cytotoxicity in TZM-bl culture cells (TZM-bl cells): No significant cytotoxicity

CCn1c2c(sc1=[Se])[S][Au-]1([S]c3sc(=[Se])n(CC)c3[S]1)[S]2.c1ccc([P+](c2ccccc2)(c2ccccc2)c2ccccc2)cc1 [[P][AuSEt(=Se)]]
Stern Volmer quenching constant KSV [1]: 5.00 ± 0.17 x 105 L mol-1 | association constant Ka [1]: 0.52 ± 0.03 x 104 L mol-1 | bimolecular quenching constant Kq [1]: 5.00 ± 0.17 x 1013 L mol-1 s-1 | number of binding sites n [1]: 2.135 | HSA fluorescence intensity quenched [1]: 79.4% | IC50 [2, 3]: 710 ± 120 nM | IC50 [2, 4]: 220 ± 110 nM

CC(C)n1c2c(sc1=S)[Se][Au-]1([Se]c3sc(=S)n(C(C)C)c3[Se]1)[Se]2.c1ccc([P+](c2ccccc2)(c2ccccc2)c2ccccc2)cc1 [[P][AuSeiPr(=S)]]
Stern Volmer quenching constant KSV [1]: 3.63 ± 0.04 x 105 L mol-1 | association constant Ka [1]: 1.52 ± 0.01 x 104 L mol-1 | bimolecular quenching constant Kq [1]: 3.63 ± 0.01 x 1013 L mol-1 s-1 | number of binding sites n [1]: 0.957 | HSA fluorescence intensity quenched [1]: 60% | IC50 [2, 3]: 3740 ± 1220 nM | IC50 [2, 4]: 680 ± 180 nM

CCCCn1c2c(sc1=S)[S][Au-]1([S]c3sc(=S)n(CCCC)c3[S]1)[S]2.c1ccc([P+](c2ccccc2)(c2ccccc2)c2ccccc2)cc1 [[P][AuSBu(=S)]]
Stern Volmer quenching constant KSV [1]: 14.9 ± 0.13 x 105 L mol-1 | association constant Ka [1]: 9.34 ± 0.01 x 104 L mol-1 | bimolecular quenching constant Kq [1]: 14.9 ± 0.05 x 1013 L mol-1 s-1 | number of binding sites n [1]: 0.738 | HSA fluorescence intensity quenched [1]: 89.7% | anti-HIV-1 activity (HIV-1 SG3.1): none of the compounds presented anti-HIV-1 activity | IC50 [2, 3]: 1380 ± 280 nM | IC50 [2, 4]: 950 ± 50 nM | CC50 (TZM-bl cells): not possible to calculate | cytotoxicity in TZM-bl culture cells (TZM-bl cells): No significant cytotoxicity

CC(=O)OC[C@H]1O[C@@H]([S-])[C@H](OC(C)=O)[C@@H](OC(C)=O)[C@@H]1OC(C)=O.CCP(CC)CC.[Au+] [Auranofin, reference compound]
anti-HIV-1 activity (HIV-1 SG3.1): none of the compounds presented anti-HIV-1 activity | IC50 [2, 3]: 2010 ± 710 nM | CC50 (TZM-bl cells; TZM-bl cells, alamarBlue, read-out: CC50): 3210 nM
